This experiment concerns the target T1, Recombinant human IKKβ (IKK2) (Homo sapiens, UniProt O14920).
T1 construct: Recombinant human IKKβ (residues 1-737); GST (C); made in house
T1 sequence (O14920 1-737): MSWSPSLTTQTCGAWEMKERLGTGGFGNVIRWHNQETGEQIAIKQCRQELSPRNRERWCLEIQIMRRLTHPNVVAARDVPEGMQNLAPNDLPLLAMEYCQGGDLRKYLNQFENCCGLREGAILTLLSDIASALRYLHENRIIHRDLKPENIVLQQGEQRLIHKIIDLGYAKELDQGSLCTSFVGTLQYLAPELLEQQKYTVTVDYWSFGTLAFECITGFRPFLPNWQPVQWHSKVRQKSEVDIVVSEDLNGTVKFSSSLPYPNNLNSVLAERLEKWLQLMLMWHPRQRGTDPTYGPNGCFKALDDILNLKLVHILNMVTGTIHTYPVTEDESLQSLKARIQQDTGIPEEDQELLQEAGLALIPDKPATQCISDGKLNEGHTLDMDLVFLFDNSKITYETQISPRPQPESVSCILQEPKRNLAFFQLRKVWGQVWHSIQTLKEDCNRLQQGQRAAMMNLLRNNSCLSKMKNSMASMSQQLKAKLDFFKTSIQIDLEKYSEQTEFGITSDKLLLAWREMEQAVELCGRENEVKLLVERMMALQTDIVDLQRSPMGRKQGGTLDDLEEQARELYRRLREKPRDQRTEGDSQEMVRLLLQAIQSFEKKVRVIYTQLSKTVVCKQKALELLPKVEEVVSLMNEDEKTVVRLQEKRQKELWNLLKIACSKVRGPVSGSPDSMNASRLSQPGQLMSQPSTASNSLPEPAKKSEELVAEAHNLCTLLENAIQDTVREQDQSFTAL
The experiment can be described thus: IKK2 Assay (TR-FRET, phosphorylation of GST-IκBα). The experiment is classed as biochemical. The following applies: recombinant human IKKβ (residues 1-737), 5 nM; GST-IκBα 25 nM, ATP 1 μM; 30 minutes at room temperature; read-out: pIC50 against IKK2 (converted). Here is the method: Recombinant human IKKβ (residues 1-737) was expressed in baculovirus as a C-terminal GST-tagged fusion protein, and its activity was assessed using a time-resolved fluorescence resonance energy transfer (TR-FRET) assay. Briefly, IKK2 (5 nM final) diluted in assay buffer (50 mM HEPES, 10 mM MgCl2, 1 mM CHAPS pH 7.4 with 1 mM DTT and 0.01% w/v BSA) was added to wells containing various concentrations of compound or DMSO vehicle (3% final). The reaction was initiated by the addition of GST-IκBα substrate (25 nM final)/ATP (1 μM final), in a total volume of 30 μl. The reaction was incubated for 30 minutes at room temperature, then terminated by the addition of 15 μl of 50 mM EDTA. Detection reagent (15 μl) in buffer (100 mM HEPES pH 7.4, 150 mM NaCl and 0.1% w/v BSA) containing antiphosphoserine-IκBα-32/36 monoclonal antibody 12C2 (Cell Signalling Technology, Beverly Mass., USA) labelled with W-1024 europium chelate (Wallac OY, Turku, Finland), and an APC-labelled anti-GST antibody (Prozyme, San Leandro, Calif., USA) was added and the reaction was further incubated for 60 minutes at room temperature. The degree of phosphorylation of GST-IκBα was measured using a Packard Discovery plate reader (Perkin-Elmer Life Sciences, Pangbourne, UK) as a ratio of specific 665 nm energy transfer signal to reference europium 620 nm signal.
For orientation: Time-resolved FRET reads energy transfer from a long-lived donor to a nearby acceptor.

We go through two compounds from patent US20080293802A1, “Chemical Compounds” (Smithline Beecham Corporation, priority 2005, published 2008).

With `Cc1cc2cc(-c3ccccc3)cc(C(N)=O)c2[nH]1` [Example 1, 2-methyl-5-phenyl-1H-indole-7-carboamide], the IC50 was no more than 10 µM.

`NC(=O)c1cc2cc(-c3ccccc3)cc(C(N)=O)c2[nH]1` [Example 2, 5-phenyl-1H-indole-2,7-dicarboxamide]: the IC50 was no more than 10 µM.
